Test results: patent publication US20230265151A1, “GIP/GLP1 CO-AGONIST COMPOUNDS” (priority 2020, published 2023)
Like-named read-outs stand apart in the source and are kept apart here.

Columns and labels:
[1] = target: T1, human Gcg receptor (hGcgR) (Homo sapiens, UniProt P47871); assay: [125I]-Glucagon binding, SPA with membranes of HEK293 cells expressing hGcgR; settings: human GcgR; geometric mean (SEM, n); read-out: Binding Affinity Ki, nM (SEM, n) hGCGR
T1 construct: expressed in transfected cells; crude membranes
Protocol: Two methods are used for the preparation of crude cell membranes.
Method 1: Frozen cell pellets are lysed on ice in hypotonic buffer containing 50 mM Tris HCl, pH 7.5, and Roche Complete™ Protease Inhibitors with EDTA. […] The homogenate is centrifuged at 4° C. at 1100 × g for 10 minutes. The supernatant is collected and stored on ice while the pellets are resuspended in homogenization buffer and rehomogenized as described above. The homogenate is centrifuged at 1100 × g for 10 minutes. The second supernatant is combined with the first supernatant and centrifuged at 35000 × g for 1 hour at 4° C. The resulting membrane pellet is resuspended in homogenization buffer containing protease inhibitors at approximately 1 to 3 mg/mL, quick frozen in liquid nitrogen and stored as aliquots in a -80° C. freezer until use.
The homogenate is centrifuged at 4° C. at 1800 × g for 15 minutes. The supernatant is collected and stored on ice while the pellets are resuspended in homogenization buffer (without DNAse I) and rehomogenized as described above. The homogenate is centrifuged at 1800 × g for 15 minutes. The second supernatant is combined with the first supernatant and centrifuged an additional time at 1800 × g for 15 minutes. The overall supernatant is then centrifuged at 25000 × g for 30 minutes at 4° C. The resulting membrane pellet is resuspended in homogenization buffer (without DNAse I) containing protease inhibitors at approximately 1 to 3 mg/mL and stored as aliquots in a -80° C. freezer until use.
The human Gcg receptor binding assays are performed using a Scintillation Proximity Assay (SPA) format with wheat germ agglutinin (WGA) beads (Perkin Elmer). The binding buffer contains 25 mM 4-(2-hydroxyethyl)-1-piperazineethanesulfonic acid (HEPES), pH 7.4, 2.5 mM CaCl2, 1 mM MgCh, 0.1% (w/v) bacitracin (Research Products), 0.003% (w/v) Polyoxyethylenesorbitan monolaurate (TWEEN®-20), and Roche Complete™ Protease Inhibitors without EDTA. […] Next, 5 µL serially diluted compound or DMSO is transferred into Corning® 3632 clear bottom assay plates containing 45 µL assay binding buffer or unlabeled Gcg control (non-specific binding or NSB, at 1 µM final). […] Plates are sealed and mixed on a plate shaker (setting 6) for 1 minute and read with a PerkinElmer Trilux MicroBeta® scintillation counter after 12 hours of incubation/settling time at room temperature.
Raw CPM data for concentration curves of peptides, Gcg, GLP-1, or GIP are converted to percent inhibition by subtracting nonspecific binding (binding in the presence of excess unlabeled Gcg, GLP-1, or GIP, respectively) from the individual CPM values and dividing by the total binding signal, also corrected by subtracting nonspecific binding. Data are analyzed using four-parameter (curve maximum, curve minimum, IC50, Hill slope) nonlinear regression routines (Genedata Screener, version 12.0.4, Genedata AG, Basal, Switzerland). […] Values for Ki are reported as the geometric mean, with error expressed as the standard error of the mean (SEM) and n is equal to the number of independent replicates (determined in assays performed on different days). Geometric Means are calculated as follows: […]
The Ki Ratio (Ki for native control peptide/Ki for test compound) at each receptor and each species is calculated. The Ki Ratio is a rapid indication of the apparent affinity of a peptide compared to the native control peptide.
n=⅟x means that only one value out of the total number of replicates (x) is used to express the mean. SEM is only calculated when n=2 or greater non-qualified results exist. Means are expressed as GeoMetric means with the standard error of the mean (SEM) and the number of replicates (n) indicated in parenthesis.

hGLP-1R = hGLP-1R (Homo sapiens, UniProt P43220); assay: Functional cAMP formation (HTRF) in HEK-293 clonal cells expressing hGLP-1R, 0.1% bovine casein, without or with 1.0% human serum albumin; format: cell-based; set-up: expressed in transfected cells; settings: for EC50: geometric mean, read-out: hGLP-1R EC50, nM (SEM, n)
In short: (§1)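 Readings of the HTRF 665/620 nm ratio, which falls as cAMP rises, were converted to nM cAMP using a standard curve after 30 min peptide exposure at 37° C.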

hGCGR = target: T2, hGCGR (Homo sapiens, UniProt P47871); assay: Functional cAMP formation (HTRF) in HEK-293 clonal cells expressing hGCGR, 0.1% bovine casein, without or with 1.0% human serum albumin; format: cell-based; settings: geometric mean, read-out: hGCGR EC50, nM (SEM, n)
T2 construct: expressed in transfected cells
In short: as §1

hGIPR = target: T3, hGIPR (Homo sapiens, UniProt P48546); assay: Functional cAMP formation (HTRF) in HEK-293 clonal cells expressing hGIPR, 0.1% bovine casein, without or with 1.0% human serum albumin; format: cell-based; settings: for EC50: geometric mean, read-out: hGIPR EC50, nM (SEM, n); for Emax: read-out: hGIPR Emax, % ± SEM
T3 construct: expressed in transfected cells
T3 sequence (P48546 22-466): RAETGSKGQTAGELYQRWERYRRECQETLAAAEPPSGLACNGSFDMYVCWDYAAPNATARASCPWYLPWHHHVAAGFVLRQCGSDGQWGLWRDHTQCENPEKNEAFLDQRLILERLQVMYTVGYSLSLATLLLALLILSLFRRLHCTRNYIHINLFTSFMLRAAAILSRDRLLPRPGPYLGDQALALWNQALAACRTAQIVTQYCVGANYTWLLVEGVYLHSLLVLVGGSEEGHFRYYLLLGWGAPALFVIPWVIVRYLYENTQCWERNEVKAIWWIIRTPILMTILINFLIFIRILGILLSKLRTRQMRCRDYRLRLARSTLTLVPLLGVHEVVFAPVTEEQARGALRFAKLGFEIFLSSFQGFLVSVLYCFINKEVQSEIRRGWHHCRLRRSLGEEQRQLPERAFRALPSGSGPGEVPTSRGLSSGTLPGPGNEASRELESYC
In short: as §1

[2] = 0.1% bovine casein and 1.0% human serum albumin, 37° C.
[3] = cAMP, incubated at 37° C., 0.1% bovine casein (no human serum albumin)
[4] = HEK293, 0.1% bovine casein and 1.0% human serum albumin, 37° C., percent of maximal response to GIP(1-42)NH2
[5] = HEK293, percent of maximal response to GIP(1-42)NH2, 37° C., 0.1% bovine casein, arithmetic mean

Sequence of hGLP-1R (P43220 24-463): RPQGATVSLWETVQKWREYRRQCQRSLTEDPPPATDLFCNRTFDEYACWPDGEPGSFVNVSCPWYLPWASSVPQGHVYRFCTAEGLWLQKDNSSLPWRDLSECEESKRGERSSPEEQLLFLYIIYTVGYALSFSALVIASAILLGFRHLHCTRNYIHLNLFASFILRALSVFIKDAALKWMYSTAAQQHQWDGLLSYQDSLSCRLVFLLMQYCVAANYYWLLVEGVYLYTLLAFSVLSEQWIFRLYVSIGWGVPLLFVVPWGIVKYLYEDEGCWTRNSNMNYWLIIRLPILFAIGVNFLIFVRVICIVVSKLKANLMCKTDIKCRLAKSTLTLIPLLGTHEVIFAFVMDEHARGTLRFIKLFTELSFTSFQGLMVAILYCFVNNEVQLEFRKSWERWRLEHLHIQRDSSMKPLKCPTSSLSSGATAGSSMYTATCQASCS
T2 sequence (P47871 26-477): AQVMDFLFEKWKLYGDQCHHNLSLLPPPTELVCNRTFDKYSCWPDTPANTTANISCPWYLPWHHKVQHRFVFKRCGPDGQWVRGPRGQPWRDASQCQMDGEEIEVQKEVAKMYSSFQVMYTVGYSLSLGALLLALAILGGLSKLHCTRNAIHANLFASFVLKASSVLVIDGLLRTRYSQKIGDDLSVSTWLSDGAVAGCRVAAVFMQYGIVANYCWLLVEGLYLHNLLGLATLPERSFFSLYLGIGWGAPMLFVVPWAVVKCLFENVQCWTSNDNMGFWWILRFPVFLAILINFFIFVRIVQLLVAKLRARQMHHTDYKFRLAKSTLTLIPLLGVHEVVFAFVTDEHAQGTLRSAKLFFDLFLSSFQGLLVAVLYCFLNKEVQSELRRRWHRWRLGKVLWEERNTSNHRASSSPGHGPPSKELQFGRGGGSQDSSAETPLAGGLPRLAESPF
T1 sequence (P47871 26-477): as above

Row | Structure (SMILES) | Ki [1] [nM] | EC50 (hGLP-1R; [2]) [nM] | Emax (hGLP-1R; HEK293, 0.1% bovine casein and 1.0% human serum albumin, 37° C., percent of maximal response to GLP-1(7-36)NH2, read-out: hGLP-1R Emax, % ± SEM) [%] | EC50 (hGCGR; [2]) [nM] | EC50 (hGCGR; [3]) [nM] | EC50 (hGIPR; [2]) [nM] | Emax (hGIPR; [4]) [%] | Emax (hGIPR; [5]) [%] | EC50 (hGLP-1R; [3]) [nM] | EC50 (hGIPR; [3]) [nM]
1 | CC[C@H](C)[C@H](NC(=O)[C@H](CC(C)C)NC(=O)[C@](C)(Cc1ccc(O)cc1)NC(=O)[C@@H](CCC(=O)O)NC(=O)[C@@H](NC(=O)[C@H](Cc1ccccc1)NC(=O)[C@H](CCC(=O)O)NC(=O)C(C)(C)NC(=O)[C@H](CCC(N)=O)NC(=O)[C@H](C)NC(=O)[C@H](CCCCNC(=O)COCCOCCNC(=O)COCCOCCNC(=O)CC[C@H](NC(=O)CCCCCCCCCCCCC(=O)O)C(=O)O)NC(=O)[C@H](CCCN)NC(=O)[C@H](CC(=O)O)NC(=O)[C@H](CC(C)C)NC(=O)[C@](C)(CC(C)C)NC(=O)[C@@H](NC(=O)[C@H](CO)NC(=O)[C@H](CCCCNC(=O)COCCOCCNC(=O)COCCOCCNC(=O)CC[C@H](NC(=O)CCCCCCCCCCCCC(=O)O)C(=O)O)NC(=O)[C@H](CC(=O)O)NC(=O)[C@H](CO)NC(=O)[C@@H](NC(=O)[C@](C)(Cc1ccccc1F)NC(=O)[C@@H](NC(=O)CNC(=O)[C@H](CCC(=O)O)NC(=O)C(C)(C)NC(=O)[C@@H](N)Cc1ccc(O)cc1)[C@@H](C)O)[C@@H](C)O)[C@@H](C)CC)[C@@H](C)CC)C(=O)N[C@@H](CCC(=O)O)C(=O)NCC(=O)NCC(=O)N1CCC[C@H]1C(=O)N[C@@H](CO)C(=O)N[C@@H](CO)C(=O)NCC(=O)N[C@@H](C)C(=O)N1CCC[C@H]1C(=O)N1CCC[C@H]1C(=O)N1CCC[C@H]1C(=O)N[C@@H](CO)C(N)=O [Example 27] | > 958 | 70.2 | 110 ± 3.03 | > 9950 | > 9950 | 6.78 | 82.8 ± 1.14 | 88.8 | – | –
2 | CC[C@H](C)[C@H](NC(=O)[C@H](CC(C)C)NC(=O)[C@](C)(Cc1ccc(O)cc1)NC(=O)[C@@H](CCC(=O)O)NC(=O)[C@@H](NC(=O)[C@H](Cc1ccccc1)NC(=O)[C@H](CCC(=O)O)NC(=O)C(C)(C)NC(=O)[C@H](CCC(N)=O)NC(=O)[C@H](C)NC(=O)[C@H](CCCCNC(=O)COCCOCCNC(=O)COCCOCCNC(=O)CC[C@H](NC(=O)CCCCCCCCCCCCC(=O)O)C(=O)O)NC(=O)[C@H](CCCN)NC(=O)[C@H](CC(=O)O)NC(=O)[C@H](CC(C)C)NC(=O)[C@](C)(CC(C)C)NC(=O)[C@H](CCCCNC(=O)COCCOCCNC(=O)COCCOCCNC(=O)CC[C@H](NC(=O)CCCCCCCCCCCCC(=O)O)C(=O)O)NC(=O)[C@H](CO)NC(=O)[C@H](Cc1ccncc1)NC(=O)[C@H](CC(=O)O)NC(=O)[C@H](CO)NC(=O)[C@@H](NC(=O)[C@](C)(Cc1ccccc1F)NC(=O)[C@@H](NC(=O)CNC(=O)[C@H](CCC(=O)O)NC(=O)C(C)(C)NC(=O)[C@@H](N)Cc1ccc(O)cc1)[C@@H](C)O)[C@@H](C)O)[C@@H](C)CC)C(=O)N[C@@H](CCC(=O)O)C(=O)NCC(=O)NCC(=O)N1CCC[C@H]1C(=O)N[C@@H](CO)C(=O)N[C@@H](CO)C(=O)NCC(=O)N[C@@H](C)C(=O)N1CCC[C@H]1C(=O)N1CCC[C@H]1C(=O)N1CCC[C@H]1C(=O)N[C@@H](CO)C(N)=O [Example 28] | > 966 | – | – | > 9950 | > 9950 | 2.08 | 93 ± 7.02 | 95.4 ± 1.58 | 2.65 | –
3 | CC[C@H](C)[C@H](NC(=O)[C@H](CC(C)C)NC(=O)[C@](C)(Cc1ccc(O)cc1)NC(=O)[C@@H](CCC(=O)O)NC(=O)[C@@H](NC(=O)[C@H](Cc1ccccc1)NC(=O)[C@H](CCC(=O)O)NC(=O)C(C)(C)NC(=O)[C@H](CCC(N)=O)NC(=O)[C@H](C)NC(=O)[C@H](CCCCNC(=O)COCCOCCNC(=O)COCCOCCNC(=O)[C@@H](N)CCCCNC(=O)CC[C@H](NC(=O)CCCCCCCCCCCCC(=O)O)C(=O)O)NC(=O)[C@H](CCCN)NC(=O)[C@H](CC(=O)O)NC(=O)[C@H](CC(C)C)NC(=O)[C@](C)(CC(C)C)NC(=O)[C@@H](NC(=O)[C@H](CO)NC(=O)[C@H](Cc1ccncc1)NC(=O)[C@H](CC(=O)O)NC(=O)[C@H](CO)NC(=O)[C@@H](NC(=O)[C@](C)(Cc1ccccc1F)NC(=O)[C@@H](NC(=O)CNC(=O)[C@H](CCC(=O)O)NC(=O)C(C)(C)NC(=O)[C@@H](N)Cc1ccc(O)cc1)[C@@H](C)O)[C@@H](C)O)[C@@H](C)CC)[C@@H](C)CC)C(=O)N[C@@H](CCC(=O)O)C(=O)NCC(=O)NCC(=O)N[C@@H](CCCCNC(=O)COCCOCCNC(=O)COCCOCCNC(=O)[C@@H](N)CCCCNC(=O)CC[C@H](NC(=O)CCCCCCCCCCCCC(=O)O)C(=O)O)C(=O)N[C@@H](CO)C(=O)N[C@@H](CO)C(=O)NCC(=O)N[C@@H](C)C(=O)N1CCC[C@H]1C(=O)N1CCC[C@H]1C(=O)N1CCC[C@H]1C(=O)N[C@@H](CO)C(N)=O [Example 34] | > 957 | 19.8 | – | > 9950 | > 9950 | 0.213 | 89.1 ± 2 | 97.4 ± 2.34 | 1 | 0.0148
